Legend:
[1] = tested on: frail elderly; assay: Example 2: double-blind, randomized, placebo-controlled trial in the frail elderly; assay type: in vivo, human
From the text: The design is a parallel group, randomized, placebo-controlled, double-blind study with three different application groups. Each group has an appropriate number of participants (e.g., 20 participants). Eligibility is defined as being 65 years or older and being frail or pre-frail. Frailty is defined as having unintentional weight loss, weakness, self-reported exhaustion, slow walking speed, and/or low physical activity (see Fried L P, et al. Frailty in older adults: evidence for a phenotype. J Gerontol A Biol Sci Med Sci. […] A participant is classified as pre-frail when one or two of the aforementioned criteria are met, while frail is classified when three or more criteria are present. […] The duration of supplementation is 6 months (180 days). […] Double-blind randomization is carried out by means of a label code associated with a specific participant ID number, whose meaning is known only to the supplier. Participants are allocated randomly to these numbers. […] For baseline (Day 0) the following tests are performed: […] […] Executive functioning test batteries include the following standard tests of executive functioning: Trail Making Tests A and B (to determine the ratio of TMT-B/TMT-A), Stroop Colour-Word Test, including determining the Stroop ratio, calculated by Stroop card 3/((Stroop card 1+Stroop card 2)/2) and animal fluency test. […]

[2] = tested on: healthy adults under 65; parameters: species or system human; settings: in vivo
From the text: The design is a parallel group, randomized, placebo-controlled, double-blind study similar to that of Example 2, above, except that the participants are healthy adults under 65. The duration of supplementation is 6 months (180 days). Group size is chosen so that a statistically significant difference, if present, may be observed between placebo and test groups.
Participants are randomly allocated to either the 25-OH D3 group, Vitamin D3 group, (Vitamin D3+25-OH D3) group or placebo group. Double-blind randomization is carried out by means of a label code associated with a specific participant ID number, whose meaning is known only to the supplier. Participants are allocated randomly to these numbers.
For baseline (Day 0) the following tests are performed: Physical examination, vital signs (blood pressure, heart rate), demographics, clinical laboratory, FFQ, serum: 25-OH D3, 24,25(OH)2D, 1,25(OH)2D3, Vitamin D3, calcium, albumin, creatinine, fasting glucose, PTH; urine: calcium, creatinine; executive function tests (see below). […]
Executive functioning test batteries include the following standard tests of executive functioning: Trail Making Tests A and B (to determine the ratio of TMT-B/TMT-A), Stroop Colour-Word Test, including determining the Stroop ratio, calculated by Stroop card 3/((Stroop card 1+Stroop card 2)/2) and animal fluency test. […]

## C=C1CC[C@H](O)C/C1=C/C=C1\CCC[C@]2(C)[C@@H]([C@H](C)CCCC(C)(C)O)CC[C@@H]12 [25(OH)D, 25-hydroxyvitamin D3]
[1]; frail elderly, 6 months, in comparison to Vitamin D3 and placebo
  improvement of executive functioning: significantly higher effect
[1]; in vivo
  25-OH D3 serum level: significantly increases
[2]
  25-OH D serum level: significantly increases

Reference: patent publication US9707242B2, “Use of 25-hydroxyvitamin D3 to enhance executive functions” (DSM IP ASSETS B.V., priority 2013, dated 2017)
